8 molecules from patent publication US7816331B2, “Substituted indazole-O-glucosides” (Janssen Pharmaceutica NV, priority 2003, dated 2010) can be followed below.

Experiment [1] concerns the target T1, human SGLT2 (Homo sapiens, UniProt P31639).
T1 construct: expressed in transfected cells
T1 sequence (P31639 1-672): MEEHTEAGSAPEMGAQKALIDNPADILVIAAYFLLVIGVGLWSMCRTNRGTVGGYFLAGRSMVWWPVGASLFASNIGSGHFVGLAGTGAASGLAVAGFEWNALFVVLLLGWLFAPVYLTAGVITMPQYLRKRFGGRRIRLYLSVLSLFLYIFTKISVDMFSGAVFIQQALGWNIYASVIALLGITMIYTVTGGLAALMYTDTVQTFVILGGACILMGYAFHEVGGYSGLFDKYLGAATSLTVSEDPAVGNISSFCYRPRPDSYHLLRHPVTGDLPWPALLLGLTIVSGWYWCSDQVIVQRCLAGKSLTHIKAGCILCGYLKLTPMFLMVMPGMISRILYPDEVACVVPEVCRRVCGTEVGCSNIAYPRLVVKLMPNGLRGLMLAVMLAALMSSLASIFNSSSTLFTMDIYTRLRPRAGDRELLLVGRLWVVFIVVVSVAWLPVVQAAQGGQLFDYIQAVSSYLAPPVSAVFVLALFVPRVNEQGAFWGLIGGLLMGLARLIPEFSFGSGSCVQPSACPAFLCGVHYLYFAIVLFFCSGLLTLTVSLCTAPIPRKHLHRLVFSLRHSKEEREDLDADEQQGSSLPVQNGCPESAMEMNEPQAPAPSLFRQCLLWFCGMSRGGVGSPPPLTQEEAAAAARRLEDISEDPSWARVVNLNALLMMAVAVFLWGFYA
As to the kind of experiment: Cell-based assay for sodium-dependent glucose transport (14C-AMG uptake), CHOK-SGLT2. The settings on record: for IC50: CHO-K1 cells stably expressing human SGLT2, Na-dependent 14C-AMG uptake, read-out: CHOK-SGLT2 IC50 (uM) ± SEM; for inhibition at 10 µM: CHO-K1, read-out: CHOK-SGLT2 % Inh. @ 10 μM. The method, then:
(§1) Cloning of the human SGLT1 and human SGLT2 cDNAs and construction of the mammalian expression vector: The human SGLT1 cDNA (Genbank M24847) was cloned from human small intestine. Human SGLT2 cDNA (Genbank M95549) was cloned from human kidney. Both full cDNAs were subcloned into pcDNA and sequenced to verify the integrity of the construct. Generation of CHO-K1 cells stably expressing human SGLT1 or human SGLT2: Transfection of CHO-K1 cells was performed using DMRIE-C reagent (Life Technologies, Gaithersburg, Md.). Transfectants were then selected in the presence of the antibiotic G418 (Gibco-BRL, Grand Island, N.Y.) at 400 μg/ml. Individual clones were then characterized using the functional assay described below. Cell-based assay for sodium-dependent glucose transport: Cell lines stably expressing human SGLT1 or SGLT2 were then used for functional analysis of Na^+-dependent glucose uptake. Briefly, cells were plated at a density of 65,000 cells per well in a 96-well plate and allowed to grow for 48 hours. Cells were subsequently washed one time with Assay Buffer (50 mM HEPES pH 7.4, 20 mM Tris, 5 mM KCl, 1 mM MgCl2, 1 mM CaCl2 and 137 mM NaCl) and treated with compound in the absence or presence of NaCl for 15 minutes. Cells were then labeled with ^14C-α-methylglucopyranoside (AMG, Sigma, St. Louis, Mo.), a non-metabolizable glucose analog specific for sodium-dependent glucose transporters as previously described (Peng, H. and Lever J. E. Post-transcriptional regulation of Na^+/glucose cotransporter (SGLT1) gene expression in LLC-PK1 cells. J Biol Chem 1995; 270:20536-20542.). After 2 hours the labelled cells were washed three times with ice-cold PBS. After aspiration, cells were solubilized using Microscint 20 (Packard, Meriden, Conn.) and Na-dependent ^14C-AMG uptake was quantified by measuring radioactivity. Plates were counted in a TopCount (Packard, Meriden, Conn.). Results are reported as the % inhibition or IC50 value from a representative experiment.

The target in experiment [2] is T2, human SGLT1 (Homo sapiens, UniProt P13866).
T2 construct: expressed in transfected cells
T2 sequence (P13866 1-664): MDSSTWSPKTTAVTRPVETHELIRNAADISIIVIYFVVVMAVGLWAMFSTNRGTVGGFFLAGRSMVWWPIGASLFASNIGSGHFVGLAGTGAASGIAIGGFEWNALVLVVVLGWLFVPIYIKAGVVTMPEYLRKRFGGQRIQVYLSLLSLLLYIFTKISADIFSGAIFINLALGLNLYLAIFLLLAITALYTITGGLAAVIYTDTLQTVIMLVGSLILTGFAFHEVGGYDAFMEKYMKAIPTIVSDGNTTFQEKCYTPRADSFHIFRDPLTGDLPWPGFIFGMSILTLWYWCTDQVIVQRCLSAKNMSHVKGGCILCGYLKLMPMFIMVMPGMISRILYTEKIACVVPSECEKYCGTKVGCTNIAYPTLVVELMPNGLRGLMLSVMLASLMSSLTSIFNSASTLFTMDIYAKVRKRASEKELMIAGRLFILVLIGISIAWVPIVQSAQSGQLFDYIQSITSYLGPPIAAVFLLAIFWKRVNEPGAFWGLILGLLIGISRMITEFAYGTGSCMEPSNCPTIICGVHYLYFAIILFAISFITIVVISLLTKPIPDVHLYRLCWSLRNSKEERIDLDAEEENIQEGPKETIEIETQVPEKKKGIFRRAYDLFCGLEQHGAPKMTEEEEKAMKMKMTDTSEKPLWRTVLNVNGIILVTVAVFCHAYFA
As to the kind of experiment: Cell-based assay for sodium-dependent glucose transport (14C-AMG uptake), CHOK-SGLT1. Particulars: 10 uM compound, CHO-K1 cells stably expressing human SGLT1, Na-dependent 14C-AMG uptake; for inhibition at 10 µM: read-out: CHOK-SGLT1 % Inh (10 uM). The method, then:
as §1, with “experiment. Variability for the functional assay was typically within 20%.” for “experiment.”

As a reminder, the IC50 is the concentration needed to halve the response being measured. With `CCOc1ccc(CCc2n[nH]c3cc(C)cc(OC4OC(CO)C(O)C(O)C4O)c23)cc1` [Example 10, 2-{3-[2-(4-Ethoxy-phenyl)-ethyl]-6-methyl-1H-indazol-4-yloxy}β-D-glucopyranoside], in experiment [1], the IC50 stood at 2 ± 0.071 µM. Further, the inhibition at 10 µM in experiment [2] is 5%.

For the molecule `OC[C@H]1O[C@@H](Oc2cccc3[nH]nc(CCc4ccc5occc5c4)c23)[C@H](O)[C@@H](O)[C@@H]1O` [Example 18], in experiment [1], the IC50 was 1.2 ± 0.071 µM. The inhibition at 10 µM in experiment [2] turned out to be 43%.

As to `Cc1cc(OC2OC(CO)C(O)C(O)C2O)c2c(CCC3CCCCC3)n[nH]c2c1` [Example 17, 2-[3-(2-Cyclohexyl-ethyl)-6-methyl-1H-indazol-4-yloxy]-β-D-glucopyranoside], the inhibition at 10 µM in experiment [1] is 67%. Also, in experiment [2], the “CHOK-SGLT1 % Inh (10 uM)” value is “inactive”.

Consider `Cc1cc(O[C@@H]2O[C@H](CO)[C@@H](O)[C@H](O)[C@H]2O)c2c(Cc3ccc4c(c3)CCO4)n[nH]c2c1` [Example 22, 2-[3-(2,3-Dihydro-benzofuran-5-ylmethyl)-6-methyl-1H-indazol-4-yloxy]-β-D-glucopyranoside], for which, in experiment [1], the inhibition at 10 µM came out at 40%. Besides, the “CHOK-SGLT1 % Inh (10 uM)” value in experiment [2] was “inactive”.

For `COc1ccc(CCc2n[nH]c3cc(C)cc(OC4OC(CO)C(O)C(O)C4O)c23)cc1` [Example 9, 2-{3-[2-(4-Methoxy-phenyl)-ethyl]-6-methyl-1H-indazol-4-yloxy}β-D-glucopyranoside], in experiment [1], the IC50 stood at 3.05 ± 0.319 µM. The inhibition at 10 µM in experiment [2] came out at 11%.

For the molecule `COc1ccc2cc(CCc3n[nH]c4cc(C)cc(OC5OC(CO)C(O)C(O)C5O)c34)ccc2c1` [Example 6, 2-{3-[2-(6-Methoxy-naphthalen-2-yl)-ethyl]-6-methyl-1H-indazol-4-yloxy}-β-D-glucopyranoside], the IC50 in experiment [1] came to 1 µM. Also, the inhibition at 10 µM in experiment [2] stood at 7%.

Consider `COc1ccc(SCc2n[nH]c3cccc(OC4OC(CO)C(O)C(O)C4O)c23)cc1` [Example 20, 2-[3-(4-Methoxy-phenylsulfanylmethyl)-1H-indazol-4-yloxy]-β-D-glucopyranoside], for which the inhibition at 10 µM was 64% in experiment [1] and 38% in experiment [2].

For the molecule `Cc1cc(O[C@@H]2O[C@H](CO)[C@@H](O)[C@H](O)[C@H]2O)c2c(CCc3ccc4c(c3)OCCO4)n[nH]c2c1` [Example 3, 2-{3-[2-(2,3-Dihydro-benzo[1,4]dioxin-6-yl)-ethyl]-6-methyl-1H-indazol-4-yloxy}β-D-glucopyranoside], the IC50 in experiment [1] was 1.59 ± 0.025 µM. Besides, in experiment [2], the “CHOK-SGLT1 % Inh (10 uM)” value was “inactive”.
